Assay results published in patent US20220144854A1, “MACROCYCLIC COMPOUNDS” (ZENO MANAGEMENT, INC., priority 2019, published 2022).
Like-named read-outs stand apart in the source and are kept apart here.

Legend:
[1] = from COC(=O)c1c(CCCI)c2ccc(Cl)c(-c3c(CN(Cc4cc(CCc5cc(O)c6ccccc6c5)n(C)n4)C(=O)OC(C)(C)C)nn4c3CCC4)c2n1C; ether bond; 21-membered ring; K2CO3; MeCN; 3.61 mM; 60.0 °C
Mcl-1 = Mcl-1 (Homo sapiens, UniProt Q07820); experiment: Mcl-1 Homogeneous Time Resolved Fluorescence (HTRF) binding assay
[2] = test system: NCI-H929 (ATCC CRL-9068) cells; experiment: NCI-H929 cell proliferation assay (CellTiter-Glo); type: cell-based; details: 72 h of compound treatment
[3] = HTRF, 4 nM Mcl-1, 100 nM FAM-Bak peptide, 10-dose, singlicate, read-out: Mcl-1 IC50

Chain of Mcl-1 (Q07820 whole entry): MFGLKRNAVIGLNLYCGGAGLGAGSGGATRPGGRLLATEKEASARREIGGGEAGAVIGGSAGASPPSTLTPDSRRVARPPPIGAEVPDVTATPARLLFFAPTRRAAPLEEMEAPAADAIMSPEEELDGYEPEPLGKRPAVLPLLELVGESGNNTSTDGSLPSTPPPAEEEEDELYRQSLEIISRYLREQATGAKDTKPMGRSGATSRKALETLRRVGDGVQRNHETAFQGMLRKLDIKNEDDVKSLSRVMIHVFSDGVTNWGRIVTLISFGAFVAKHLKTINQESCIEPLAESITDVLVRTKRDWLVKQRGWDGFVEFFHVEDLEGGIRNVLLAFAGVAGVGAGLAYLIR

**Q.** Which ring closure, isolated yield [1] does the source give for `COC(=O)c1c2c3ccc(Cl)c(c3n1C)-c1c(nn3c1CCC3)CN(C(=O)OC(C)(C)C)Cc1cc(n(C)n1)CCc1cc(c3ccccc3c1)OCCC2` here?
**A.** 40%

**Q.** For `Cc1[nH]nc2c1-c1c(Cl)ccc3c(c(C(=O)O)n(C)c13)CCCOc1cc(cc3ccccc13)SCc1cc(nn1C(C)C)CSC2` (single isomer, unassigned) [Example 9A, (Z)-1^6-Chloro-6^1-isopropyl-1^1,2^5-dimethyl-1^1H,2^1H,6^1H-10-oxa-4,8-dithia-1(7,3)-indola-2(4,3),6(3,5)-dipyrazola-9(3,1)-naphthalenacyclotridecaphane-1^2-carboxylic acid], which IC50 (Mcl-1; [3]) is on record?
**A.** < 10 nM

**Q.** And the IC50 ([2]; Homo sapiens, NCI-H929, 72 h)?
**A.** 0.1 to 1 µM

**Q.** With `Cc1c2c(nn1C)CSCc1cc(n(C(C)C)n1)CSc1cc(c3ccccc3c1)OCCCc1c(C(=O)O)n(C)c3c-2c(Cl)ccc13` (single isomer, unassigned) [Example 10A, (Z)-1^6-Chloro-6^1-isopropyl-1^1,2^1,2^5-trimethyl-1^1H,2^1H,6^1H-10-oxa-4,8-dithia-1(7,3)-indola-2(4,3),6(3,5)-dipyrazola-9(3,1)-naphthalenacyclotridecaphane-1^2-carboxylic acid] as the molecule, how does the IC50 (Mcl-1; [3]) read?
**A.** < 10 nM

**Q.** And the IC50 ([2]; Homo sapiens, NCI-H929, 72 h)?
**A.** < 0.1 µM

**Q.** What does the source list for `Cc1c2c(nn1C)CSCc1cc(n[nH]1)CSc1cc(c3ccccc3c1)OCCCc1c(C(=O)O)n(C)c3c-2c(Cl)ccc13` (single isomer, unassigned) [Example 11B, (Z)-1^6-Chloro-1^1,2^1,2^5-trimethyl-1^1H,2^1H,6^1H-10-oxa-4,8-dithia-1(7,3)-indola-2(4,3),6(3,5)-dipyrazola-9(3,1)-naphthalenacyclotridecaphane-1^2-carboxylic acid]?
**A.** IC50 (Mcl-1; Mcl-1 IC50 (nM)): < 10 nM; IC50 ([2]; Homo sapiens): < 0.1 µM

**Q.** Which IC50 (Mcl-1; [3]) does the source give for `Cc1c2c(nn1C)CSCc1cc(n(C)n1)CSc1cc(c3ccccc3c1)OCCCc1c(C(=O)O)n(C)c3c-2c(F)ccc13` (single isomer, unassigned) [Example 14A, (Z)-1^6-Fluoro-1^1,2^1,2^5,6^1-tetramethyl-1^1H,2^1H,6^1H-10-oxa-4,8-dithia-1(7,3)-indola-2(4,3),6(3,5)-dipyrazola-9(3,1)-naphthalenacyclotridecaphane-1^2-carboxylic acid] here?
**A.** < 10 nM

**Q.** What about the IC50 ([2]; Homo sapiens, NCI-H929, 72 h) of the same molecule?
**A.** < 0.1 µM

**Q.** Which IC50 (Mcl-1; [3]) does the source give for `CCn1nc2cc1CSc1cc(c3ccccc3c1)OCCCc1c(C(=O)O)n(C)c3c(c(F)ccc13)-c1c(C)nn(C)c1CSC2` (single isomer, unassigned) [Example 15A, (Z)-6^1-Ethyl-1^6-fluoro-1^1,2^1,2^3-trimethyl-1^1H,2^1H,6^1H-10-oxa-4,8-dithia-1(7,3)-indola-2(4,5),6(3,5)-dipyrazola-9(3,1)-naphthalenacyclotridecaphane-1^2-carboxylic acid] here?
**A.** > 100 nM

**Q.** And the IC50 ([2]; Homo sapiens, NCI-H929, 72 h)?
**A.** > 1 µM

**Q.** Which results are given for `Cc1nn(C)c2c1-c1c(F)ccc3c(c(C(=O)O)n(C)c13)CCCOc1cc(cc3ccccc13)SCc1cc(nn1C(C)C)CSC2` (single isomer, unassigned) [Example 16A, (Z)-1^6-Fluoro-6^1-isopropyl-1^1,2^1,2^3-trimethyl-1^1H,2^1H,6^1H-10-oxa-4,8-dithia-1(7,3)-indola-2(4,5),6(3,5)-dipyrazola-9(3,1)-naphthalenacyclotridecaphane-1^2-carboxylic acid]?
**A.** IC50 (Mcl-1; [3]): < 10 nM; IC50 [2]: < 0.1 µM

**Q.** Which IC50 (Mcl-1; [3]) does the source give for `Cc1nn(C)c2c1-c1c(F)ccc3c(c(C(=O)O)n(C)c13)CCCOc1cc(cc3ccccc13)SCc1cc(nn1CC(C)C)CSC2` (single isomer, unassigned) [Example 17A, (Z)-1^6-Fluoro-6^1-isobutyl-1^1,2^1,2^3-trimethyl-1^1H,2^1H,6^1H-10-oxa-4,8-dithia-1(7,3)-indola-2(4,5),6(3,5)-dipyrazola-9(3,1)-naphthalenacyclotridecaphane-1^2-carboxylic acid] here?
**A.** > 100 nM

**Q.** What about the IC50 [2] of the same molecule?
**A.** > 1 µM

**Q.** For `Cc1nn(C)c2c1-c1c(F)ccc3c(c(C(=O)O)n(C)c13)CCCOc1cc(cc3ccccc13)SCc1cc(nn1CC1CC1)CSC2` (single isomer, unassigned) [Example 18A], which IC50 (Mcl-1; [3]) is on record?
**A.** > 100 nM

**Q.** And the IC50 ([2]; Homo sapiens, NCI-H929, 72 h)?
**A.** > 1 µM

**Q.** With `Cc1nn(C23CC(C2)C3)c2c1-c1c(Cl)ccc3c(c(C(=O)O)n(C)c13)CCCOc1cc(cc3ccccc13)SCc1cc(nn1C)CSC2` (single isomer, unassigned) [Example 20A, (Z)-2^1-(Bicyclo[1.1.1]pentan-1-yl)-1^6-chloro-1^1,2^3,6^1-trimethyl-1^1H,2^1H,6^1H-10-oxa-4,8-dithia-1(7,3)-indola-2(4,5),6(3,5)-dipyrazola-9(3,1)-naphthalenacyclotridecaphane-1^2-carboxylic acid] as the molecule, how does the IC50 (Mcl-1; [3]) read?
**A.** 10 to 100 nM

**Q.** And the IC50 [2]?
**A.** > 1 µM

**Q.** Which IC50 (Mcl-1; [3]) does the source give for `Cc1nn(C23CC(C2)C3)c2c1-c1c(Cl)ccc3c(c(C(=O)O)n(C)c13)CCCOc1cc(cc3ccccc13)SCc1cc(nn1C)CSC2` (single isomer, unassigned) [Example 20B, (Z)-2^1-(Bicyclo[1.1.1]pentan-1-yl)-1^6-chloro-1^1,2^3,6^1-trimethyl-1^1H,2^1H,6^1H-10-oxa-4,8-dithia-1(7,3)-indola-2(4,5),6(3,5)-dipyrazola-9(3,1)-naphthalenacyclotridecaphane-1^2-carboxylic acid] here?
**A.** < 10 nM

**Q.** What about the IC50 [2] of the same molecule?
**A.** < 0.1 µM

**Q.** What does the source list for `Cc1nn(C23CC(C2)C3)c2c1-c1c(Cl)ccc3c(c(C(=O)O)n(C)c13)CCCOc1cc(cc3ccccc13)SCc1cc(n[nH]1)CSC2` (single isomer, unassigned) [Example 21B, (Z)-2^1-(Bicyclo[1.1.1]pentan-1-yl)-1^6-chloro-1^1,2^3-dimethyl-1^1H,2^1H,6^1H-10-oxa-4,8-dithia-1(7,3)-indola-2(4,5),6(3,5)-dipyrazola-9(3,1)-naphthalenacyclotridecaphane-1^2-carboxylic acid]?
**A.** IC50 (Mcl-1; [3]): < 10 nM; IC50 ([2]; Homo sapiens, NCI-H929, 72 h): < 0.1 µM
